According to patent US20090226384A1, “ANTIMICROBIAL COMPOSITION CONTAINING TRICLOSAN AND AT LEAST ONE FUNCTIONALIZED HYDROCARBON” (priority 2006, published 2009):
Values after ≈ are worked out from the molar mass of the structure shown. Like-named read-outs stand apart in the source and are kept apart here.

Tests used:
[1] = system: Malassezia restricta CBS 7877; assay: MIC by macrobroth double dilution (NCCLS); assay type: cell-based
Experimental: (§1) MIC value—is the lowest concentration of the antimicrobial agent required to inhibit growth of the microorganism was determined by the macrobroth double dilution method as per the NCCLS guidelines. (Reference Method for broth dilution antifungal susceptibility testing of Yeasts, Approved Standard; M27A, Vol. 17, No. 9, 1997 & Methods for dilution antimicrobial susceptibility tests for bacteria that grow aerobically; Approved Standard—5th Ed., M7-A5, Vol. 20, No. 2, 2000. National Committee for Clinical Laboratory Standards, Wayne, Pa.).
(§2) The test substances viz., TCS, CMB, ZPTO, KTZ, LGO, Citral, Nerol & Geraniol were prepared as stock solutions. Weighed 10 mg of TCS, CMB, ZPTO, & KTZ individually and dissolved in 1 ml of solvent (IN NaOH for TCS and DMSO for CMB, ZPTO & KTZ) and diluted in 19 ml SDB. The concentration of the prepared substances was 500 μg/ml. Similarly, weighed 400 mg of LGO, Citral, Nerol & Geraniol individually and dissolved in 2 ml DMSO and diluted in 18 ml SDB. The concentration of LGO, Citral, Nerol & Geraniol was 20000 μg/ml. All test solutions were prepared afresh prior to determination of MIC.
(§3) S. aureus, S. epidermidis and B. subtilis were cultured in Mueller Hinton Agar (MHA) for 24 hrs. at 37° C. 1-2 colonies were suspended in MHB overnight at 37° C. C. albicans and A. niger were cultured in Sabauraud Dextrose Agar (SDA) at 28° C. for 24 hrs and 4 days respectively. 1-2 colonies of C. albicans was suspended in SDB and cultured overnight at 28° C. Aspergillus spores were washed with physiological saline prior to testing. M. furfur was cultured in SDA with 1% Tween 80 for 72 hrs at 32° C. Colonies were suspended in SDB with 1% Tween 80 and incubated at 32° C. M. restricta was cultured in Dixon agar at 32° C. for 3-4 days. Colonies were suspended in saline prior to testing.
(§4) Colonies suspended in broth/saline were determined for counts photometrically. (Hammer K A, et al.: Antimicrob. Agents Chemo., (2000), 44(2): 467-469). The organisms were diluted such that the final concentration was 1×10^6 cfu/ml for S. aureus, S. epidermidis and B. subtilis, 1×10^5 cfu/ml for C. albicans and A. niger and 2×10^3 cfu/ml for M. furfur and M. restricta.
(§5) Double fold serial dilutions were done with the test substance, such that the final concentration of TCS was between 250 μg/ml and 0.03 μg/ml; and that of functionalized hydrocarbon (Citral, Nerol, Geraniol) and/or mixtures containing such functionalized hydrocarbons (LGO) was between 10000 μg/ml-19.53 μg/ml. Inoculated organisms were added to the tubes and required controls were also set up in the assay to rule out contamination/inactivation of the test substance.
(§6) Tubes were incubated for 24 hrs at 37° C. for S. aureus, S. epidermidis and B. subtilis; at 28° C. for C. albicans; for 48 hrs at 28° C. for A. niger, 32° C. for M, furfur and M. restricta. At the end of the incubation period, 10 μl aliquots from each tube were spot inoculated onto Nutrient agar (for bacteria), SDA (for C. albicans & A. niger), SDA with 1% Tween 80 for M. furfur and Dixon Agar for M. restricta. The plates were incubated for 24 hrs at 37° C. (S. aureus, S. epidermidis & B. subtilis), at 28° C. (C. albicans); 3-4 days at 28° C. (A. niger), 48-72 hrs at 32° C. (M. furfur & M. restricta) when the colonies became visible.
(§7) At the end of the incubation period, plates were checked for growth of colonies.
(§8) 140 mg of the sample was dissolved in 2 ml of Dimethyl Sulfoxide (DMSO) and further diluted in 18 ml of SDB. The final concentration of antimicrobial and functionalized hydrocarbon and/or mixtures containing such functionalized hydrocarbons in the mixture was 333.33 μg/ml and 6666.66 μg/ml respectively.
(§9) 205 mg of the sample was dissolved in 2 ml of Dimethyl Sulfoxide (DMSO) and further diluted in 18 ml of SDB. The final concentration of antimicrobial and functionalized hydrocarbon and/or mixtures containing such functionalized hydrocarbons in the mixture was 250 μg/ml and 10000 μg/ml respectively.

[2] = system: Malassezia furfur (Pityrosporum ovale) MTCC 1374; assay: MIC by macrobroth double dilution (NCCLS); assay type: cell-based
Experimental: as §1, §2, §3, §4, §5, §6, §7, §8, §9

[3] = system: Staphylococcus epidermidis MTCC 435; assay: MIC by macrobroth double dilution (NCCLS); assay type: cell-based
Experimental: as §1, §2, §3, §4, §5, §6, §7, §8, §9

[4] = system: Aspergillus niger MTCC 1344; assay: MIC by macrobroth double dilution (NCCLS); assay type: cell-based
Experimental: as §1, §2, §3, §4, §5, §6, §7, §8, §9

[5] = system: Bacillus subtilis MTCC 441; assay: MIC by macrobroth double dilution (NCCLS); assay type: cell-based
Experimental: as §1, §2, §3, §4, §5, §6, §7, §8, §9

[6] = system: Candida albicans MTCC 3017; assay: MIC by macrobroth double dilution (NCCLS); assay type: cell-based
Experimental: as §1, §2, §3, §4, §5, §6, §7, §8, §9

[7] = system: Staphylococcus aureus MTCC 96; assay: MIC by macrobroth double dilution (NCCLS); assay type: cell-based
Experimental: as §1, §2, §3, §4, §5, §6, §7, §8, §9

[8] = Bhargava & Leonard 1996; cited from earlier work
[9] = Malassezia furfur, MTCC1374, individual ingredient, M. furfur, read-out: MIC
[10] = CBS7877, individual ingredient, M. restricta, read-out: MIC
[11] = MTCC435, individual ingredient, S. epidermidis, read-out: MIC
[12] = MTCC1344, individual ingredient, A. niger, read-out: MIC
[13] = MTCC441, individual ingredient, B. subtilis, read-out: MIC
[14] = MTCC3017, individual ingredient, C. albicans, read-out: MIC
[15] = MTCC96, individual ingredient, S. aureus, read-out: MIC

Row | MIC [2, 9] [µg/mL] | MIC [1, 10] [µg/mL] | MIC [3, 11] [µg/mL] | MIC [4, 12] [µg/mL] | MIC [5, 13] [µg/mL] | MIC [6, 14] [µg/mL] | MIC [7, 15] [µg/mL] | Compound | further results
1 |  |  |  |  |  |  |  | Oc1cc(Cl)ccc1Oc1ccc(Cl)cc1Cl [TCS, 2,4,4′-trichloro-2′-hydroxydiphenyl ether, reference compound] | MIC ([1]; CBS7877): 62.5 µg/mL (≈ 216 µM); MIC ([2]; Malassezia furfur, MTCC1374): 62.5 µg/mL (≈ 216 µM); MIC ([3]; MTCC435): 7.81 µg/mL (≈ 27 µM); MIC ([4]; MTCC1344): 31.2 µg/mL (≈ 108 µM); MIC ([5]; MTCC441): 15.6 µg/mL (≈ 53.9 µM); MIC ([6]; MTCC3017): 15.6 µg/mL (≈ 53.9 µM); MIC ([7]; MTCC96): 1.95 µg/mL (≈ 6.73 µM); carcinogenic, mutagenic or teratogenic effects [8]: not found to have any carcinogenic, mutagenic or teratogenic effects; toxicity to humans and other mammals [8]: relatively non-toxic
2 | 0.48 (≈ 0.903 µM) |  |  |  |  |  |  | CC(=O)N1CCN(c2ccc(OCC3COC(Cn4ccnc4)(c4ccc(Cl)cc4Cl)O3)cc2)CC1 (stereo not drawn) [KTZ, Ketoconazole] | 
3 | 1.95 (≈ 6.66 µM) |  |  |  |  |  |  | CC(C)(C)C(=O)C(Oc1ccc(Cl)cc1)n1ccnc1 (stereo not drawn) [CMB, Climbazole] | 
4 | 39.1 (≈ 257 µM) | 156 (≈ 1030 µM) | 312 (≈ 2050 µM) | 625 (≈ 4110 µM) | 5000 (≈ 32800 µM) | 156 (≈ 1030 µM) | 312 (≈ 2050 µM) | CC(C)=CCCC(C)=CC=O [Citral] | 
5 | 156 (≈ 1010 µM) | 312 (≈ 2030 µM) | 1250 (≈ 8100 µM) | 1250 (≈ 8100 µM) | 10000 (≈ 64800 µM) | 1250 (≈ 8100 µM) | 5000 (≈ 32400 µM) | CC(C)=CCC/C(C)=C\CO [Nerol] | 
6 | 156 (≈ 1010 µM) | 312 (≈ 2030 µM) | 1250 (≈ 8100 µM) | 5000 (≈ 32400 µM) | 2500 (≈ 16200 µM) | 1250 (≈ 8100 µM) | 5000 (≈ 32400 µM) | CC(C)=CCC/C(C)=C/CO [Geraniol] | 
7 |  |  |  |  |  |  |  | Zinc Pyrithione [ZPTO] | MIC ([2]; individual ingredient, M. furfur): 3.9 µg/mL
